Measured values from patent US20260085062A1, “NOVEL COMPOUNDS AS CK2 INHIBITORS” (Cambridge Enterprise Limited, priority 2022, published 2026).

Tests used:
[1] = target: T1, CK2α (Homo sapiens, UniProt P68400); assay: Biochemical assay for inhibitors of CK2α kinase activity (ADP-Glo); conditions: 0.2 nM CK2α, 50 μM peptide substrate, 15 μM ATP, read-out: Assay 1: CK2α Enzyme IC50
T1 construct: CK2α (residues 2-329) was produced in Escherichia coli BL21 (DE3) for kinase activity screening; His6 (N, cleaved yes); made in house; host or cells: Escherichia coli BL21 (DE3)
T1 sequence (P68400 2-329): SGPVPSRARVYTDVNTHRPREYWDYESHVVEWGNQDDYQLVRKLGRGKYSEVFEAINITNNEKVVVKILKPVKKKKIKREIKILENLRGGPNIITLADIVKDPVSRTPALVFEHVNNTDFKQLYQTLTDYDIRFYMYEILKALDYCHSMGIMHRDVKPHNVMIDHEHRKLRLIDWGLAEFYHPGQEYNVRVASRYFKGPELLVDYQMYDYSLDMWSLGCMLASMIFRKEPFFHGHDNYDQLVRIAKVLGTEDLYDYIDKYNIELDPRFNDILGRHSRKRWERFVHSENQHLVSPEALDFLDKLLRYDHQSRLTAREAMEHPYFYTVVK

[2] = target: T2, CLK2 (Homo sapiens, UniProt P49760); assay: Biochemical assay for inhibitors of CLK2 kinase activity (ADP-Glo); conditions: 20 nM CLK2, 50 μM peptide substrate, 100 μM ATP, read-out: Assay 2: CLK2 Enzyme IC50
T2 construct: purchased Carna Biosciences 04-127
T2 sequence (P49760 whole entry): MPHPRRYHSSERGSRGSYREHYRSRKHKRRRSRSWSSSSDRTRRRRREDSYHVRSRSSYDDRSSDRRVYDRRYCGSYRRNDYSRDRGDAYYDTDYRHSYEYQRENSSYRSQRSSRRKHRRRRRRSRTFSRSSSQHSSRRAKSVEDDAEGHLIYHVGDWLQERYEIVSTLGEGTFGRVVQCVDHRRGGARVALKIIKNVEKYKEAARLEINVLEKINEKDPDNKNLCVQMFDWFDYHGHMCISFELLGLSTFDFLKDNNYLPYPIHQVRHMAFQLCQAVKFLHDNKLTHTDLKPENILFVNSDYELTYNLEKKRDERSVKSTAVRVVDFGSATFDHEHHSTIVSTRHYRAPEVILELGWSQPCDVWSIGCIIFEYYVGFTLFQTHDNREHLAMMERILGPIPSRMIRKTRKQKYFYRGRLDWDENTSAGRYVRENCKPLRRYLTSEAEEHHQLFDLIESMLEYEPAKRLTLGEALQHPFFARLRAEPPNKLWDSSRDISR

[3] = target: T3, intracellular CK2α (Homo sapiens, UniProt P19784); assay: Cell-based NanoBRET assay for inhibitor binding to intracellular CK2α; conditions: HCT116 cells transiently transfected with CSNK2A2-NanoLuc fusion vector; Tracer K-5; 2 h; read-out: Assay 3: NanoBRET ™ assay for binding to intracellular CK2α
T3 construct: host or cells: HCT116 (ATCC CCL-247)
T3 sequence (P19784 whole entry, the tested form may be a part): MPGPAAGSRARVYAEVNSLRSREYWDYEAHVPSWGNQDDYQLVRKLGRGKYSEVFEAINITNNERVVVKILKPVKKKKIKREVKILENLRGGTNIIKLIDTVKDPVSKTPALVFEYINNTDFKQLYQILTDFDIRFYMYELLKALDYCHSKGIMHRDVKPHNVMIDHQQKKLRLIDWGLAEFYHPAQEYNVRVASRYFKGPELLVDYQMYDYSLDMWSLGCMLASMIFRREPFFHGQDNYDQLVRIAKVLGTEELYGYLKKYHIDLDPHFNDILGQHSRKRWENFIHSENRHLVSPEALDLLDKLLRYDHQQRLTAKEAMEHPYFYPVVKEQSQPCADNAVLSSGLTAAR
How it was run: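 Living cells expressing NanoLuc-CK2α fusion were given a fixed tracer concentration, and compounds competitively displaced the reversibly bound tracer. Donor (450 nm) and acceptor (610 or 630 nm) emissions were read; BRET ratio = (acceptor/donor)×1,000, giving apparent intracellular affinity.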

OCCOc1cc(CNCCCCOCCNc2cccc3[nH]ncc23)cc(OC(F)(F)F)c1 [Example 202, 2-(3-(((4-(2-((1H-indazol-4-yl)amino)ethoxy)butyl)amino)methyl)-5-(trifluoromethoxy)phenoxy)ethan-1-ol]
IC50 [1]: 0.216 µM | IC50 [2]: 23.3 µM | IC50 [3]: > 3 µM

OCc1cc(CNC2CC(COCCNc3cc(-c4cnns4)cc4[nH]ncc34)C2)cc(OC(F)(F)F)c1 (stereo not drawn) [Example 203, (3-(((3-((2-((6-(1,2,3-thiadiazol-5-yl)-1H-indazol-4-yl)amino)ethoxy)methyl)cyclobutyl)amino)methyl)-5-(trifluoromethoxy)phenyl)methanol]
IC50 [1]: 0.0361 µM | IC50 [2]: 0.307 µM | IC50 [3]: 0.546 µM

N#CCc1cc(NCCOCCCCNCc2cc(CO)cc(OC(F)(F)F)c2)c2cn[nH]c2c1 [Example 204, 2-(4-((2-(4-((3-(hydroxymethyl)-5-(trifluoromethoxy)benzyl)amino)butoxy)ethyl)amino)-1H-indazol-6-yl)acetonitrile]
IC50 [1]: 0.0462 µM | IC50 [2]: 3.44 µM | IC50 [3]: 0.405 µM

OCCOc1cc(CNC2CC(COCCNc3cc(-c4cnns4)cc4[nH]ncc34)C2)cc(OC(F)(F)F)c1 (stereo not drawn) [Example 205]
IC50 [1]: 0.0127 µM | IC50 [2]: 0.214 µM | IC50 [3]: 0.467 µM

CC(C)(C#N)c1cc(NCCOCCCCNCc2cc(CO)cc(OC(F)(F)F)c2)c2cn[nH]c2c1 [Example 206, 2-(4-((2-(4-((3-(hydroxymethyl)-5-(trifluoromethoxy)benzyl)amino)butoxy)ethyl)amino)-1H-indazol-6-yl)-2-methylpropanenitrile]
IC50 [1]: 0.0639 µM | IC50 [2]: 2.26 µM | IC50 [3]: 0.595 µM

C[C@@H](CCCOCCNc1cc(-c2cnns2)cc2[nH]ncc12)NCc1cc(CO)cc(OC(F)(F)F)c1 [Example 207, (S)-(3-(((5-(2-((6-(1,2,3-thiadiazol-5-yl)-1H-indazol-4-yl)amino)ethoxy)pentan-2-yl)amino)methyl)-5-(trifluoromethoxy)phenyl)methanol]
IC50 [1]: 0.00171 µM | IC50 [2]: 0.24 µM | IC50 [3]: 0.00866 µM

C[C@H](COCCCCNCc1cc(CO)cc(OC(F)(F)F)c1)Nc1cc(-c2cnns2)cc2[nH]ncc12 [Example 208, (R)-(3-(((4-(2-((6-(1,2,3-thiadiazol-5-yl)-1H-indazol-4-yl)amino)propoxy)butyl)amino)methyl)-5-(trifluoromethoxy)phe-nyl)methanol]
IC50 [1]: 0.00892 µM | IC50 [2]: 0.0697 µM | IC50 [3]: 0.0699 µM

N-(2-(4-((3-chloro-4-(trifluoromethoxy)benzyl)amino)butoxy)ethyl)-6-(azetidine-4-yl)-1H-benzo[d][1,2,3]triazol-4-amine [Example 127]
IC50 [1]: 0.00506 µM | IC50 [2]: 1.38 µM | IC50 [3]: 0.306 µM
